Assays:
[1] = tested on: PC-3 cell lines; assay: Prostate cancer model, PC-3 cell lines subcutaneously transplanted, tumor volume and weight; format: in vivo, nude mice; conditions: result in words
Method: A prostate cancer model was established by subcutaneously transplanting PC-3 cell lines into nude mice, and the mice were divided into two groups (group 1: vehicle administration group (10% DSMO, 30% PEG400, 60% DW), group 2: 50 mg/kg Example 27 compound administration group). The drug was administered orally once a day for 12 times. To evaluate the therapeutic efficacy, tumors were […] before drug administration and on days 3, 6, 8, 10, 12, and 14 after drug administration, and tumor volumes were measured. Tumor volume (mm^3) was calculated as follows (tumor volume (mm^3) = (A X B^2)/2, where A = tumor long axis, B = tumor short axis), and the results are shown in FIG. 2.
Meanwhile, on day 12 of drug administration, the tumor was removed and its weight was measured, the results are shown in FIG. 3, and a photograph of the removed tumor was taken and shown in FIG. 4.

[2] = molecular target: T1, HDAC7 (Homo sapiens, UniProt Q8WUI4); assay: Selective HDAC inhibition, HDAC Fluorogenic assay kit; format: biochemical; conditions: final concentration 10 µM; HDAC substrate 2A 200 µM; positive control (1% DMSO) set to 100; read-out: HDAC7 enzyme activity (%)
T1 construct: purchased BPS bioscience
T1 sequence (Q8WUI4 1-952): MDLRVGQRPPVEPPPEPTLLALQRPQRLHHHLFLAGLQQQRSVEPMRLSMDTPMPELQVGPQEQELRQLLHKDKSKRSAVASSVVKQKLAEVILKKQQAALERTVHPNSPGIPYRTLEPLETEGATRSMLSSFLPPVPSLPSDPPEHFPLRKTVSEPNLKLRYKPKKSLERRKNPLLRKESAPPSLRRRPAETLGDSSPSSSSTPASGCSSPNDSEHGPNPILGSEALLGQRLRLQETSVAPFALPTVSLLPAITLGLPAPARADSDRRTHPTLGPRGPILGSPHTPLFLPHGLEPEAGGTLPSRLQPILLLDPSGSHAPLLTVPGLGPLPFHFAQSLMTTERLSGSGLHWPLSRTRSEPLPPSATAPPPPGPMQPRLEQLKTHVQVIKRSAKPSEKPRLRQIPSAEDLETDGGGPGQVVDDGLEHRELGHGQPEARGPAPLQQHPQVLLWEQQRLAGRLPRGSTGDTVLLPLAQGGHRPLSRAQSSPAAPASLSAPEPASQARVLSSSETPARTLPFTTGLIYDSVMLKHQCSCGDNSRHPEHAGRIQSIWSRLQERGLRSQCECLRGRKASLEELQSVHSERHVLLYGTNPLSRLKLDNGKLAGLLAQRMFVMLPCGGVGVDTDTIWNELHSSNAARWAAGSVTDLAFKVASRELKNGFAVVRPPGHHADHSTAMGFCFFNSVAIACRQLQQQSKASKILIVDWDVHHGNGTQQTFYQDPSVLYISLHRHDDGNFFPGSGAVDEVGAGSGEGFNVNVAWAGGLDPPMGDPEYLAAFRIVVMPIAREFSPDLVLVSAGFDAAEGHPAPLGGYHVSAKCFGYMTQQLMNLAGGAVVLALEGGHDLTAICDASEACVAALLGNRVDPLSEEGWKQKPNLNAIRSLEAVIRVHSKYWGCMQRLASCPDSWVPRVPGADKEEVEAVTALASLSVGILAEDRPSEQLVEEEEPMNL
Method: For analysis, HDAC substrate 3 was diluted in buffer to a concentration of 200 µM and used in HDAC 1, 2, 3, 6, and 10 assays, HDAC substrate 2A was diluted in buffer to a concentration of 200 µM and used in HDAC 4, 7, 9, and 11 assays, HDAC substrate 2A was diluted in buffer to a concentration of 20 µM and used in HDAC 8 assays. For the HDAC 11 assay, a dedicated buffer included in the kit was used separately, and the same buffer was used for the remaining assays. The compound of the Example was diluted to 1 mM (1% DMSO concentration) using DMSO to obtain a final concentration of 10 µM, and prepared by diluting 1/10 with assay buffer. In a 96-well black round-bottom plate, 5 µL of the diluted compound of the Example, 5 µL of the diluted HDAC substrate, 5 µL of BSA (1 mg/ml), 5 µL of the HDAC enzyme diluted to the appropriate concentration, and 30 µL of assay buffer were added, and the enzyme reaction was performed at 37°C for 30 minutes. […] Afterwards, 50 µL of 2X HDAC developer was added to each well. After reacting for 15 minutes at room temperature, the fluorescence values at excitation wavelengths of 350-380 nm and emission wavelengths of 440-460 nm were measured using a microplate reader (Synergy Neo).

[3] = tested on: Huh-7 cell lines; assay: Liver cancer model, Huh-7 cell lines subcutaneously transplanted, tumor volume and weight; format: in vivo, nude mice; conditions: result in words
Method: In addition, a liver cancer model was established by subcutaneously transplanting Huh-7 cell lines into nude mice. After establishing the liver cancer model, the mice were divided into two groups (group 1: vehicle administration group, group 2: 50 mg/kg Example 27 compound administration group). The drug was administered once a day for 12 times. To evaluate therapeutic efficacy, tumor volume was measured before drug administration and on days 4, 7, 10, 13, and 15 after drug administration. Tumor volume (mm^3) was calculated as follows (tumor volume (mm^3) = (A X B^2)/2, where A = tumor long axis, B = tumor short axis). Body weight was measured before administration and on days 4, 7, 10, 13, and 15 after drug administration during the drug administration period. Tumor was excised on day 15 after drug treatment and body weight was measured.

- remaining activity at 10 µM [2]: 91.2%
Structure (SMILES): Cc1cc2nc(C(=O)NCCc3c[nH]c4ccc(O)cc34)c(=O)n(C[C@H](O)[C@H](O)[C@H](O)CO)c2cc1C [Example 27, N-(2-(5-hydroxy-1H-indol-3-yl)ethyl)-6,7-dimethyl-3-oxo-4-((2S,3S,4R)-2,3,4,5-tetrahydroxypentyl)-3,4-dihydroquinoxaline-2-carboxamide]
- tumor volume ([1]; 50 mg/kg orally once a day for 12 times, up to day 14, *p<0.05 compared with vehicle, FIG. 2): significantly reduced tumor volume growth rate compared to group 1
- tumor weight ([1]; 50 mg/kg orally once a day, tumor removed on day 12, ***p<0.0005 compared with vehicle, FIG. 3): vehicle administration group (group 1) had a significantly higher tumor weight
- tumor volume ([3]; 50 mg/kg once a day for 12 times, until day 15, **p<0.005 compared with vehicle, FIG. 7A): tumor growth inhibitory effect
- tumor weight ([3]; 50 mg/kg, tumor removed on day 15, ***p<0.0005 compared with vehicle, FIGS. 7B and 7C): tumor weight of the vehicle group was significantly higher

From EP4501917A1, “3,4-DIHYDROQUINOXALINE-2-CARBOXIMIDE DERIVATIVE COMPOUND AND PHARMACEUTICAL COMPOSITION COMPRISING SAME FOR PREVENTING OR TREATING CANCER DISEASE” (Daegu-Gyeongbuk Medical Innovation Foundation, priority 2022, dated 2023)
